Data taken from PMC11945201, “Enhancing the Oral Bioavailability of Glutathione Using Innovative Analogue Approaches” (Pharmaceutics, 2025).

Legend:
[1] = test system: glutathione S-transferase (GST); test: Glutathione S-transferase assay (CDNB conjugation, absorbance 340 nm); type: biochemical, equine; conditions: for GST Activity > 50%: yes/no, compared to GSH, more than 50% considered retaining GST activity
Experimental: The degree of conjugation of GSH or novel compounds to a substrate catalysed by GST can be monitored […] by conjugation with the substrate 1-chloro-2,4-dinotrobenzene (CDNB) to a thiol group. Successful conjugation results in the formation of a S-DNB conjugate, which strongly absorbs at 340 nm.
A stock solution of GSH and novel compounds (0.0315 mmolL^−1) were prepared. GSH or novel compounds (26 µL) were added to a mixture of pH = 7.4 DPBS (170 µL), CDNB (2 µL, 100 mmolL^−1), and GST enzyme (2 µL, 25 UmL^−1) to initiate the reaction. The rate of increase in absorbance at 340 nm was monitored every minute over a 10 min period. The rate of increase in absorbance at 340 nm was calculated by the following equation (Equation (1)), where ΔA340 is the change in absorption at 340 nm per minute:(1) ΔA340=A340(final)–A340(initial)/t.
The rate of increase in absorption at 340 nm was correlated to the specific activity of GST using the following equation (Equation (2)):(2) ΔA340×V/εmM ×Venz=Specific activity of GST, where the extinction coefficient εmM for a 96-well plate of a path length of 0.5 cm is 5.3 mmolL^−1cm^−1; Venz is the volume of the GST enzyme sample used (2 µL); and V is the total volume used ([…]). […] A GST activity more than 50% was considered as retaining GST activity.

[2] = test system: glutathione reductase (GR) and glutathione peroxidase (GPx); test: Glutathione reductase and glutathione peroxidase coupled assay (NADPH, 340 nm); type: biochemical, yeast (GR), bovine (GPx); conditions: for GT/GPx Activity > 50%: yes/no, more than 50% considered retaining GR and GPx activity
Experimental: The activity of GR can be measured by monitoring the rate of decrease in absorbance of its substrate, NADPH, which absorbs light of 340 nm in the presence of a second substrate, i.e., oxidised GSH. […] In the presence of peroxides, reduced GSH can be oxidised by the enzyme GPx while reducing the peroxide. […] The NADPH solution (10 μL, 5 mmolL^−1), GPx enzyme solution (10 μL, 0.25 UmL^−1), and GR enzyme solution (10 μL, 10 UmL^−1) were also added to the reaction mixture. The reaction was initiated by the addition of tBu-OOH (2 μL, 30 mmolL^−1), and the decrease in absorbance at 340 nm was recorded by a microplate reader every 10 secs for one minute. […] A GR and GPx activity more than 50% was considered as retaining GR and GPx activity.

[3] = test system: Caco-2, Fibroblast, and HT29-MTX-E12 cells; test: Cytotoxicity by MTT cell viability; type: cell-based; conditions: for IC50: Homo sapiens, 24 h incubation, cell line not split in table (Caco-2, Fibroblast, HT29-MTX-E12), highest usable concentration 3.25 mmolL^−1
Experimental: All cell culture studies were conducted in aseptic conditions. Incubation was maintained at an atmosphere of 37.0 °C, 5% CO2, and 95% relative humidity. The caco-2 cells were grown in complete Dulbecco’s modified Eagle’s medium (DMEM), which was prepared by adding 10% foetal bovine serum (FBS), 1% penicillin-streptomycin (P-S), and 1% non-essential amino acids (NEAA) to sterile DMEM. Cells were cultured in T-25 and T-75 tissue culture flasks, and the medium was exchanged every 3 days until 90% confluence was reached. Cells were detached and subcultured with 0.25% Trypsin-EDTA. The suspended cell concentration was determined by cell counting.
Cytotoxicity was measured by measuring cell viability using MTT. Then, 90% confluent cells were detached by 0.25% trypsin-EDTA, which were then counted and seeded into sterile 96-well plates. Caco-2 cells were seeded into 96-well plates at a density of 100,000 cells per well and incubated for 24 h prior to the experiment. Fibroblast cells were seeded into 96-well plates at a density of 10,000 cells per well and incubated for 24 h prior to the experiment. HT-29 cells were seeded into 96-well plates at a density of 10,000 cells per well and incubated for 24 h prior to the experiment. The supernatant in each well were discarded and the attached cells were washed using serum-free Fluorobite^TM DMEM twice to remove any phenol red. The peptide, at concentrations of 10 mgmL^−1, 1 mgmL^−1, 0.1 mgmL^−1, 0.01 mgmL^−1, 0.001 mgmL^−1, and 0.0001 mgmL^−1 were dissolved in serum-free Fluorobite^TM DMEM. The total volume of sample in each well used was 100 μL. The cells were incubated with the peptide for 24 h. Cells were also incubated with serum-free DMEM (positive control) and 2% Triton-X (negative control) for 24 h. The supernatant in each well was then discarded and washed using serum-free Fluorobite^TM DMEM. MTT (100 μL, 1.2 mmolL^−1) dissolved in Fluorobite^TM DMEM was then added to each well and incubated for 2 h for MTT conversion into formazan. The supernatant was then discarded, and the cells were washed using Fluorobite^TM DMEM to remove any residual MTT and formazan that were not attached to cellular mitochondria. Formazan was dissolved in dimethyl sulfoxide (DMSO) (50 μL), and the absorbance was measured on a microplate reader at a wavelength of 570 nm. Cell viability was expressed as a percentage of the positive control and calculated as follows (where Aexp is the absorbance at 570 nm of the experimental group, Aneg is the absorbance at 570 nm of the negative control, and Acon is the cell viability of the positive control): Cell viability = (Aexp − Aneg)/(Acon − Aneg).

Fibroblast cells = test: UV rescue of UVA-irradiated fibroblast cells (MTT); type: cell-based; conditions: for % Cell Viability (with UV): UVA 1 h, then peptide 0.0325 mmolL^−1, 24 h
Experimental: Fibroblast cells were seeded into 96-well plates at a density of 10,000 cells per well determined by cell counting. Cells were allowed to settle and attach for 24 h before the addition of peptides. The supernatant in each well was discarded, and the attached cells were washed using serum-free DMEM twice. One group of cells was exposed to UVA under a UV lamp for 1 h. A second group of cells was not exposed to UV irradiation. The supernatant was removed from each well of both groups and replaced with peptide (100 μL, 0.0325 mmolL^−1), which was then dissolved in Fluorobite^TM DMEM. Each plate, including 2 wells of both groups was also incubated with serum-free DMEM (positive control) and 2% Triton-X (negative control) for 24 h. The supernatant in each well of both groups was then discarded and the cells washed using PBS. MTT (100 μL, 6 mmolL^−1) that was dissolved in HBSS was then added to each well and incubated for 2 h for MTT conversion into formazan. The supernatant was then discarded, and the cells were washed using PBS to remove any residual MTT and formazan that were not attached to the cellular mitochondria. Formazan was dissolved in DMSO (50 μL), and the absorbance was measured on a microplate reader at a wavelength of 570 nm.

Row | SMILES | activity/efficacy with GST enzyme (in words) ([1]; qualitative analysis) | GST Activity > 50% [1] | activity with GPx and GR enzymes (in words) ([2]; qualitative analysis) | GT/GPx Activity > 50% [2] | IC50 [3] [mM] | cytotoxicity (in words) ([3]; up to 3.25 mmolL^−1) | cell viability versus untreated groups (in words) (Fibroblast cells; UV rescue) | % Cell Viability (with UV) (Fibroblast cells; mean ± SD, n = 6) [%] | % Cell Viability (no UV) (Fibroblast cells; peptide 0.0325 mmolL^−1, 24 h, no UV, mean ± SD, n = 6) [%]
1 | CN(C(=O)CC[C@H](N)C(=O)O)[C@@H](CS)C(=O)NCC(=O)O [Compound 1.70] | did not | ✔ (✔: yes) | retention of activity | ✔ (✔: yes) | > 3.25 | no cytotoxicity detected | significantly higher cell viability than the untreated groups | 112.4 ± 9.7 | –
2 | N[C@@H](CCC(=O)N[C@@H](CS)C(=O)NCC(=O)O)C(=O)O [GSH, Glutathione] | – | ✔ (✔: yes) | – | ✔ (✔: yes) | > 3.25 | – | – | 87.7 ± 4.5 | 100.0 ± 8.1
